In patent US12077503B2, “Substituted cyclic amides and their use as herbicides” (FMC CORPORATION, priority 2015, dated 2024):

Assays:
Format in all cases: in vivo
Kochia (Kochia scoparia) [1] = experiment: Test A preemergence; settings: Bassia scoparia, pre-emergence, 240 h, 0 to 100 scale where 0 is no effect and 100 is complete control, read-out: Kochia plant response rating; for pest or weed control at 31 g/ha: 31 g ai/ha, Preemergence; for pest or weed control at 125 g/ha: 125 g ai/ha, preemergence, visual injury rating, approximately 10 d
Method in brief: (§1)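 Visual injury scores from 0, no effect, to 100, complete control, were assigned versus untreated controls roughly 10 d after treatment in the greenhouse. Test chemicals, formulated with surfactant in a non-phytotoxic solvent, were applied to planted seeds as a preemergence soil spray or postemergence to one- to two-leaf plants 2 to 10 cm tall, in loam–sand soil.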

[2] = test system: barnyardgrass (Echinochloa crus-galli); experiment: Test A preemergence; settings: Echinochloa crus-galli, pre-emergence, 240 h, 0 to 100 scale where 0 is no effect and 100 is complete control, read-out: Barnyardgrass plant response rating; for pest or weed control at 31 g/ha: 31 g ai/ha, Preemergence; for pest or weed control at 125 g/ha: 125 g ai/ha, preemergence, visual injury rating, approximately 10 d
Method in brief: as §1

[3] = test system: giant foxtail (Setaria faberii); experiment: Test A preemergence; settings: Setaria faberi, pre-emergence, 240 h, 0 to 100 scale where 0 is no effect and 100 is complete control, read-out: Foxtail, Giant plant response rating; for pest or weed control at 31 g/ha: 31 g ai/ha, Preemergence; for pest or weed control at 125 g/ha: 125 g ai/ha, preemergence, visual injury rating, approximately 10 d
Method in brief: as §1

[4] = test system: pigweed (Amaranthus retroflexus); experiment: Test A preemergence; settings: Amaranthus retroflexus, pre-emergence, 240 h, 0 to 100 scale where 0 is no effect and 100 is complete control, read-out: Pigweed plant response rating; for pest or weed control at 31 g/ha: 31 g ai/ha, Preemergence; for pest or weed control at 125 g/ha: 125 g ai/ha, preemergence, visual injury rating, approximately 10 d
[5] = test system: ragweed (common ragweed, Ambrosia elatior); experiment: Test A preemergence; settings: Ambrosia artemisiifolia, pre-emergence, 240 h, 0 to 100 scale where 0 is no effect and 100 is complete control, read-out: Ragweed plant response rating; for pest or weed control at 31 g/ha: 31 g ai/ha, Preemergence; for pest or weed control at 125 g/ha: 125 g ai/ha, preemergence, visual injury rating, approximately 10 d
Method in brief: as §1

[6] = test system: ryegrass, Italian (Italian ryegrass, Lolium multiflorum); experiment: Test A preemergence; settings: Lolium multiflorum, pre-emergence, 240 h, 0 to 100 scale where 0 is no effect and 100 is complete control, read-out: Ryegrass, Italian plant response rating; for pest or weed control at 31 g/ha: 31 g ai/ha, Preemergence; for pest or weed control at 125 g/ha: 125 g ai/ha, preemergence, visual injury rating, approximately 10 d
Method in brief: as §1

[7] = test system: Galium (catchweed bedstraw, Galium aparine); experiment: Test A postemergence; settings: Galium, post-emergence, 240 h, Postemergence, read-out: Galium plant response rating (0 to 100 scale); for pest or weed control at 125 g/ha: 125 g ai/ha, visual rating about 10 d after treatment; for pest or weed control at 31 g/ha: 31 g ai/ha, 0 is no effect, 100 is complete control
Method in brief: as §1

Kochia (Kochia scoparia) [8] = experiment: Test A postemergence; settings: Bassia scoparia, post-emergence, 240 h, Postemergence, read-out: Kochia plant response rating (0 to 100 scale); for pest or weed control at 125 g/ha: 125 g ai/ha, visual rating about 10 d after treatment; for pest or weed control at 31 g/ha: 31 g ai/ha, 0 is no effect, 100 is complete control
Method in brief: as §1

[9] = test system: barnyardgrass (Echinochloa crus-galli); experiment: Test A postemergence; settings: Echinochloa crus-galli, post-emergence, 240 h, Postemergence; for pest or weed control at 125 g/ha: 125 g ai/ha, visual rating about 10 d after treatment, read-out: Barnyardgrass plant response rating (0 to 100 scale, 0 no effect, 100 complete control); for pest or weed control at 31 g/ha: 31 g ai/ha, 0 is no effect, 100 is complete control, read-out: Barnyardgrass plant response rating (0 to 100 scale)
Method in brief: as §1

[10] = test system: blackgrass (Alopecurus myosuroides); experiment: Test A postemergence; settings: Alopecurus myosuroides, post-emergence, 240 h, Postemergence, read-out: Blackgrass plant response rating (0 to 100 scale); for pest or weed control at 125 g/ha: 125 g ai/ha, visual rating about 10 d after treatment; for pest or weed control at 31 g/ha: 31 g ai/ha, 0 is no effect, 100 is complete control
Method in brief: as §1

corn (Zea mays) = experiment: Test A postemergence; settings: Zea mays, post-emergence, 240 h, Postemergence, read-out: Corn plant response rating (0 to 100 scale); for plant injury at 125 g/ha: 125 g ai/ha, visual rating about 10 d after treatment; for plant injury at 31 g/ha: 31 g ai/ha, 0 is no effect, 100 is complete control
Method in brief: as §1

[11] = test system: giant foxtail (Setaria faberii); experiment: Test A postemergence; settings: Setaria faberi, post-emergence, 240 h, Postemergence, read-out: Foxtail, Giant plant response rating (0 to 100 scale); for pest or weed control at 125 g/ha: 125 g ai/ha, visual rating about 10 d after treatment; for pest or weed control at 31 g/ha: 31 g ai/ha, 0 is no effect, 100 is complete control
Method in brief: as §1

[12] = test system: pigweed (Amaranthus retroflexus); experiment: Test A postemergence; settings: Amaranthus retroflexus, post-emergence, 240 h, Postemergence, read-out: Pigweed plant response rating (0 to 100 scale); for pest or weed control at 125 g/ha: 125 g ai/ha, visual rating about 10 d after treatment; for pest or weed control at 31 g/ha: 31 g ai/ha, 0 is no effect, 100 is complete control
Method in brief: as §1

[13] = test system: ragweed (common ragweed, Ambrosia elatior); experiment: Test A postemergence; settings: Ambrosia artemisiifolia, post-emergence, 240 h, Postemergence, read-out: Ragweed plant response rating (0 to 100 scale); for pest or weed control at 125 g/ha: 125 g ai/ha, visual rating about 10 d after treatment; for pest or weed control at 31 g/ha: 31 g ai/ha, 0 is no effect, 100 is complete control
Method in brief: as §1

[14] = test system: ryegrass, Italian (Italian ryegrass, Lolium multiflorum); experiment: Test A postemergence; settings: Lolium multiflorum, post-emergence, 240 h, Postemergence, read-out: Ryegrass, Italian plant response rating (0 to 100 scale); for pest or weed control at 125 g/ha: 125 g ai/ha, visual rating about 10 d after treatment; for pest or weed control at 31 g/ha: 31 g ai/ha, 0 is no effect, 100 is complete control
Method in brief: as §1

[15] = test system: wheat (Triticum aestivum); experiment: Test A postemergence; settings: Triticum aestivum, post-emergence, 240 h, Postemergence, read-out: Wheat plant response rating (0 to 100 scale); for plant injury at 125 g/ha: 125 g ai/ha, visual rating about 10 d after treatment; for plant injury at 31 g/ha: 31 g ai/ha, 0 is no effect, 100 is complete control
Method in brief: as §1

[16] = test system: barnyardgrass (Echinochloa crus-galli); experiment: Test B flooded paddy test; settings: Echinochloa crus-galli, 250 g ai/ha, Flood; 0 to 100 scale where 0 is no effect and 100 is complete control; read-out: Barnyardgrass plant response rating
Method in brief: (§2)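 Compound goes directly into floodwater once pots are flooded 3 cm above soil, targeting plants at two leaves; the water depth is then held for the test duration. Plants sit 13–15 d in a greenhouse and are rated visually, 100 denoting complete control.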

[17] = test system: ducksalad (Heteranthera limosa); experiment: Test B flooded paddy test; settings: Heteranthera limosa, 250 g ai/ha, Flood; 0 to 100 scale where 0 is no effect and 100 is complete control; read-out: Ducksalad plant response rating
Method in brief: as §2

rice (Oryra sativa) = experiment: Test B flooded paddy test; settings: Oryza sativa, 250 g ai/ha, Flood; 0 to 100 scale where 0 is no effect and 100 is complete control; read-out: Rice plant response rating
Method in brief: as §2

[18] = test system: sedge, umbrella (small-flower umbrella sedge, Cyperus difformis); experiment: Test B flooded paddy test; settings: Cyperus difformis, 250 g ai/ha, Flood; 0 to 100 scale where 0 is no effect and 100 is complete control; read-out: Sedge, Umbrella plant response rating
Method in brief: as §2

## CN1C[C@H](c2csc3c2CCCC3)[C@@H](C(=O)Nc2cccc(F)c2F)C1=O [Compound 1276]
Kochia (Kochia scoparia) [1]
  pest or weed control at 31 g/ha: 30%
  pest or weed control at 125 g/ha: 60%
[2]
  pest or weed control at 31 g/ha: 90%
  pest or weed control at 125 g/ha: 100%
[3]
  pest or weed control at 31 g/ha: 90%
  pest or weed control at 125 g/ha: 100%
[4]
  pest or weed control at 31 g/ha: 0%
  pest or weed control at 125 g/ha: 30%
[5]
  pest or weed control at 31 g/ha: 20%
  pest or weed control at 125 g/ha: 80%
[6]
  pest or weed control at 31 g/ha: 0%
  pest or weed control at 125 g/ha: 30%
[7]
  pest or weed control at 125 g/ha: 0%
  pest or weed control at 31 g/ha: 0%
Kochia (Kochia scoparia) [8]
  pest or weed control at 125 g/ha: 0%
  pest or weed control at 31 g/ha: 0%
[9]
  pest or weed control at 125 g/ha: 100%
  pest or weed control at 31 g/ha: 70%
[10]
  pest or weed control at 125 g/ha: 0%
  pest or weed control at 31 g/ha: 0%
Corn (Zea mays)
  plant injury at 125 g/ha: 0%
  plant injury at 31 g/ha: 0%
[11]
  pest or weed control at 125 g/ha: 60%
  pest or weed control at 31 g/ha: 30%
[12]
  pest or weed control at 125 g/ha: 0%
  pest or weed control at 31 g/ha: 0%
[13]
  pest or weed control at 125 g/ha: 0%
  pest or weed control at 31 g/ha: 0%
[14]
  pest or weed control at 125 g/ha: 0%
  pest or weed control at 31 g/ha: 0%
[15]
  plant injury at 125 g/ha: 0%
  plant injury at 31 g/ha: 0%
[16]
  pest or weed control at 250 g/ha: 65%
[17]
  pest or weed control at 250 g/ha: 90%
Rice (Oryra sativa)
  pest or weed control at 250 g/ha: 25%
[18]
  pest or weed control at 250 g/ha: 0%

## O=C1NC[C@H](c2csc3c2CCOC3)[C@H]1C(=O)Nc1cccc(F)c1F [Compound 1279]
Kochia (Kochia scoparia) [1]
  pest or weed control at 31 g/ha: 0%
  pest or weed control at 125 g/ha: 0%
[2]
  pest or weed control at 31 g/ha: 0%
  pest or weed control at 125 g/ha: 70%
[3]
  pest or weed control at 31 g/ha: 0%
  pest or weed control at 125 g/ha: 20%
[4]
  pest or weed control at 31 g/ha: 0%
  pest or weed control at 125 g/ha: 0%
[5]
  pest or weed control at 31 g/ha: 0%
  pest or weed control at 125 g/ha: 0%
[6]
  pest or weed control at 31 g/ha: 0%
  pest or weed control at 125 g/ha: 0%
[7]
  pest or weed control at 125 g/ha: 30%
  pest or weed control at 31 g/ha: 0%
Kochia (Kochia scoparia) [8]
  pest or weed control at 125 g/ha: 0%
  pest or weed control at 31 g/ha: 0%
[9]
  pest or weed control at 125 g/ha: 50%
  pest or weed control at 31 g/ha: 0%
[10]
  pest or weed control at 125 g/ha: 20%
  pest or weed control at 31 g/ha: 0%
Corn (Zea mays)
  plant injury at 125 g/ha: 0%
  plant injury at 31 g/ha: 0%
[11]
  pest or weed control at 125 g/ha: 20%
  pest or weed control at 31 g/ha: 0%
[12]
  pest or weed control at 125 g/ha: 0%
  pest or weed control at 31 g/ha: 0%
[13]
  pest or weed control at 125 g/ha: 0%
  pest or weed control at 31 g/ha: 0%
[14]
  pest or weed control at 125 g/ha: 0%
  pest or weed control at 31 g/ha: 0%
[15]
  plant injury at 125 g/ha: 0%
  plant injury at 31 g/ha: 0%
[16]
  pest or weed control at 250 g/ha: 40%
[17]
  pest or weed control at 250 g/ha: 100%
Rice (Oryra sativa)
  pest or weed control at 250 g/ha: 30%
[18]
  pest or weed control at 250 g/ha: 0%
